Experimental data taken from ChEMBL document CHEMBL1921784, “Benzobistriazinones and related heterocyclic ring systems as potent, orally bioavailable positive allosteric AMPA receptor modulators” (Bioorg Med Chem Lett, 2011).
Calls of active or inactive are those of the source. The calls are words filed in the database; no cut-off is given here.

How the values were obtained:
Rattus norvegicus [1] = species on record: Rattus norvegicus; assay: Positive allosteric modulation of AMPA receptor in Sprague-Dawley rat embryonic hippocampal neuron assessed as concentration required to double the steady-state glutamate-induced current by patch-clamp assay; conditions: Hippocampus
Rattus norvegicus [2] = assay: Positive allosteric modulation of AMPA receptor in Sprague-Dawley rat adult hippocampus dentate gyrus assessed as increase in field excitatory postsynaptic potential amplitude at 5 mg/kg, ip infused for 30 mins relative to baseline; assay type: functional
[3] = Half life in rat; assay type: ADME, organism-based; conditions: in vivo
Rattus norvegicus [4] = assay: Positive allosteric modulation of AMPA receptor in Sprague-Dawley rat adult hippocampus dentate gyrus assessed as increase in field excitatory postsynaptic potential amplitude at 1 mg/kg, ip infused for 30 mins relative to baseline; assay type: functional; conditions: route intraperitoneal
Rattus norvegicus [5] = assay: Positive allosteric modulation of AMPA receptor in Sprague-Dawley rat adult hippocampus dentate gyrus assessed as increase in field excitatory postsynaptic potential amplitude at 20 mg/kg, ip infused for 30 mins relative to baseline; assay type: functional; conditions: route intraperitoneal
Rattus norvegicus [6] = assay: Positive allosteric modulation of AMPA receptor in Sprague-Dawley rat adult hippocampus dentate gyrus assessed as increase in field excitatory postsynaptic potential amplitude at 10 mg/kg, ip infused for 30 mins relative to baseline; assay type: functional; conditions: route intraperitoneal
Rattus norvegicus [7] = assay: Positive allosteric modulation of AMPA receptor in Sprague-Dawley rat adult hippocampus dentate gyrus assessed as increase in field excitatory postsynaptic potential amplitude at 3 mg/kg, ip infused for 30 mins relative to baseline; assay type: functional; conditions: route intraperitoneal
[8] = Oral bioavailability in rat; assay type: ADME, organism-based; conditions: in vivo
[9] = Half life in dog; assay type: ADME, organism-based, Canis lupus familiaris; conditions: in vivo
[10] = Half life in cynomolgus monkey; assay type: ADME, organism-based, Macaca fascicularis; conditions: in vivo
[11] = Oral bioavailability in cynomolgus monkey; assay type: ADME, organism-based, Macaca fascicularis; conditions: in vivo

Compound	CD (Rattus norvegicus [1])	Activity (Rattus norvegicus [2]; route intraperitoneal)	further results
C#CCn1nnc2cc3c(=O)n([C@H](C)Cn4cnnn4)cnc3cc2c1=O	0.25 µM	1%	–
C[C@H](Cn1ncnn1)n1nnc2cc3c(=O)n(C4CC4)cnc3cc2c1=O	1 µM	16%	–
Cc1nnnn1C[C@@H](C)n1nnc2cc3c(=O)n(C4CC4)nnc3cc2c1=O	0.25 µM	8%	–
C[C@H](Cn1ncc(C#N)n1)n1nnc2cc3c(=O)n(C4CC4)nnc3cc2c1=O	–	17%	–
C[C@H](Cn1ncnn1)n1nnc2cc3c(cc2c1=O)OCN(C1CC1)C3=O	–	–	half-life [3]: 0.27 h
C[C@H](Cn1cc(C#N)cn1)n1cnc2cc3c(=O)n(C4CC4)nnc3cc2c1=O	–	2%	–
C[C@H](Cn1ncnn1)n1cnc2cc3c(=O)n([C@H](C)Cn4ncnn4)nnc3cc2c1=O	0.008 µM	–	Activity (Rattus norvegicus [4]): 43%
C[C@H](Cn1ncnn1)n1cnc2cc3c(=O)n(CC(F)F)nnc3cc2c1=O	–	–	Activity (Rattus norvegicus [5]): 16%
COCCn1nnc2cc3c(=O)n([C@H](C)Cn4ncnn4)nnc3cc2c1=O	–	34%	–
C[C@H](Cn1nccn1)n1cnc2cc3c(=O)n(C4CC4)nnc3cc2c1=O	–	–	Activity (Rattus norvegicus [6]): 9%
C[C@H](Cn1ncnn1)n1cnc2cc3c(=O)n(C4CC4)cnc3cc2c1=O	1.4 µM	2%	–
C[C@H](Cn1ncnn1)n1cnc2cc3c(=O)n(CC(F)(F)F)nnc3cc2c1=O	–	–	Activity (Rattus norvegicus [6]): 7%
C[C@H](Cn1ncnn1)n1cnc2cc3c(=O)n(CCF)nnc3cc2c1=O	–	–	Activity (Rattus norvegicus [6]): 32%
C[C@H](Cn1ccnn1)n1nnc2cc3c(=O)n([C@H](C)Cn4ccnn4)nnc3cc2c1=O	0.06 µM	–	Activity (Rattus norvegicus [7]): 0%
C[C@H](Cn1nccn1)n1nnc2cc3c(=O)n([C@H](C)Cn4nccn4)nnc3cc2c1=O	0.4 µM	9%	–
C[C@H](Cn1ncnn1)n1nnc2cc3c(=O)n(C)nnc3cc2c1=O	0.28 µM	46%	–
C#CCn1nnc2cc3c(=O)n([C@H](C)Cn4ncnn4)nnc3cc2c1=O	0.57 µM	20%	–
C[C@H](Cn1ncnn1)n1cnc2cc3c(=O)n([C@H](C)Cn4cnnn4)nnc3cc2c1=O	0.02 µM	1%	–
C[C@H](Cn1nccn1)n1cnc2cc3c(=O)n(C)nnc3cc2c1=O	–	–	Activity (Rattus norvegicus [5]): 30%
C[C@H](Cn1ncc(C#N)n1)n1cnc2cc3c(=O)n(C4CC4)nnc3cc2c1=O	–	–	Activity (Rattus norvegicus [6]): 3%
C[C@H](Cn1nccn1)n1nnc2cc3c(=O)n(C4CC4)nnc3cc2c1=O	1.3 µM	–	Activity (Rattus norvegicus [6]): 12%
Cc1nnn(C[C@@H](C)n2nnc3cc4c(=O)n(C5CC5)nnc4cc3c2=O)n1	3.1 µM	7%	–
CCn1nnc2cc3c(=O)n([C@H](C)Cn4ncnn4)nnc3cc2c1=O	0.3 µM	34%	–
C[C@H](Cn1cnnn1)n1nnc2cc3c(=O)n(C4CC4)nnc3cc2c1=O	0.07 µM	11%	–

Compound	CD (Rattus norvegicus [1])	Activity (Rattus norvegicus [2]; route intraperitoneal)	further results
C=CCn1nnc2cc3c(=O)n([C@H](C)Cn4ncnn4)nnc3cc2c1=O	–	12%	–
C[C@H](Cn1nccn1)n1nnc2cc3c(=O)n([C@H](C)Cn4ncnn4)nnc3cc2c1=O	0.07 µM	–	Activity (Rattus norvegicus [7]): 26%
C[C@H](Cn1ccnn1)n1nnc2cc3c(=O)n(C4CC4)nnc3cc2c1=O	0.37 µM	–	Activity (Rattus norvegicus [6]): 24%
C[C@H](Cn1cccn1)n1cnc2cc3c(=O)n([C@H](C)Cn4cccn4)cnc3cc2c1=O	0.09 µM	2%	–
C[C@H](Cn1ncnn1)n1cnc2cc3c(=O)n(C)nnc3cc2c1=O	–	63%	–
CC#CCn1nnc2cc3c(=O)n([C@H](C)Cn4ncnn4)nnc3cc2c1=O	–	43%	–
C[C@H](Cn1ccnn1)n1nnc2cc3c(=O)n(C)nnc3cc2c1=O	0.09 µM	7%	–
CC(C)n1nnc2cc3c(=O)n([C@H](C)Cn4ncnn4)nnc3cc2c1=O	0.44 µM	26%	–
C[C@H](Cn1ncnn1)n1cnc2cc3c(=O)n([C@H](C)Cn4ncnn4)cnc3cc2c1=O	0.03 µM	0%	–
C[C@H](Cn1cnnn1)n1cnc2cc3c(=O)n(C4CC4)nnc3cc2c1=O	0.07 µM	2%	–
C[C@H](Cn1cccn1)n1cnc2cc3c(=O)n(C4CC4)nnc3cc2c1=O	–	–	Activity (Rattus norvegicus [6]): 20%
C#C[C@H](Cn1ncnn1)n1nnc2cc3c(=O)n(C4CC4)nnc3cc2c1=O	–	4%	–
C#C[C@H](Cc1cccc(F)c1)n1nnc2cc3c(=O)n(C4CC4)nnc3cc2c1=O	0.45 µM	1%	–
C[C@H](Cn1ncnn1)n1nnc2cc3c(=O)n([C@H](C)Cn4ncnn4)nnc3cc2c1=O	0.016 µM	–	Activity (Rattus norvegicus [4]): 59%
O=c1c2cc3nnn(C4CC4)c(=O)c3cc2nnn1CCn1ncnn1	–	1%	–
C[C@H](Cn1ncnn1)n1nnc2cc3c(=O)n(C4CC4)nnc3cc2c1=O	0.28 µM	37%	bioavailability [8]: 100%; half-life [9]: 3 h; half-life [10]: 9.5 h; half-life [3]: 1.7 h; bioavailability [11]: 100%
C[C@H](Cn1ccnn1)n1cnc2cc3c(=O)n(C)nnc3cc2c1=O	–	–	Activity (Rattus norvegicus [5]): 5%
C[C@H](CNS(C)(=O)=O)n1nnc2cc3c(=O)n(C4CC4)nnc3cc2c1=O	0.7 µM	–	Activity (Rattus norvegicus [2]): inactive
C[C@H](Cn1cnnn1)n1nnc2cc3c(=O)n(C)nnc3cc2c1=O	0.08 µM	19%	–
C[C@H](Cn1nccn1)n1nnc2cc3c(=O)n(C)nnc3cc2c1=O	2.1 µM	7%	–
C[C@H](Cn1ncnn1)n1cnc2cc3c(=O)n(C4CC4)nnc3cc2c1=O	0.6 µM	33%	bioavailability [8]: 100%; half-life [9]: 4.8 h; half-life [3]: 1.6 h
C[C@H](Cn1cncn1)n1nnc2cc3c(=O)n(C4CC4)nnc3cc2c1=O	1.1 µM	7%	–
C#CCn1nnc2cc3c(=O)n([C@H](C)Cn4ncnn4)cnc3cc2c1=O	0.5 µM	11%	–
O=c1c2cc3nnn(C4CC4)c(=O)c3cc2ncn1CCn1ncnn1	–	7%	–
